This is an account of results in ChEMBL document CHEMBL3045765, “Quantitative structure-fungitoxicity relationships of some monohydric alcohols” (J Agric Food Chem, 2003).

In test [1] the test system is Colletotrichum gloeosporioides. The experiment in a line: Fungitoxicity against Colletotrichum gloeosporioides assessed as mycelial growth inhibition by poisoned food technique. It counts as functional, organism-based. Particulars: for minimal effective concentration: read-out: MEC.
Test [2] has as its system Colletotrichum gloeosporioides. Briefly: Fungitoxicity against Colletotrichum gloeosporioides assessed as mycelial growth inhibition at 1200 mg/L by poisoned food technique. The test is classed as functional. The settings on record: read-out: GI.

Some results are limits rather than exact numbers.

Take `C=C[C@H](O)CCCCC`: the EC50 in test [1] (read-out: EC50) was 1290 µg/mL; in test [1] (read-out: pEC50 (converted)), 10 mM.
For `CCCCCCCO` [1-HEPTANOL], the EC50 was 546 µg/mL in test [1] (read-out: EC50) and 4.68 mM in test [1] (read-out: pEC50 (converted)). Moreover, the minimal effective concentration in test [1] was determined as 182 µg/mL.
The corresponding values for `CCCCCCO` [1-HEXANOL] are 1270 µg/mL, 12 mM and 772 µg/mL.
The like results for `CCCCCO` [1-PENTANOL] were, in that order, 2130 µg/mL, 24 mM and 712 µg/mL.
As for `CC(C)CCO` [3-METHYLBUTANOL], the EC50 is 3710 µg/mL in test [1] (read-out: EC50) and 41.7 mM in test [1] (read-out: pEC50 (converted)).
Consider `CC(C)[C@@H]1CC[C@@H](C)C[C@@H]1O` [(+) NEOMENTHOL], for which the EC50 in test [1] (read-out: EC50) was 488 µg/mL; in test [1] (read-out: pEC50 (converted)), 3.09 mM.
As for `CCO` [ALCOHOL], the EC50 in test [1] (read-out: EC50) was 17700 µg/mL. In addition, in test [1], the minimal effective concentration is 5490 µg/mL.
`OCc1ccccc1` [BENZYL ALCOHOL]: the EC50 was 1180 µg/mL in test [1] (read-out: EC50) and 11 mM in test [1] (read-out: pEC50 (converted)).
On to `CCCCO` [BUTYL ALCOHOL], for which the EC50 in test [1] (read-out: EC50) is 3690 µg/mL; in test [1] (read-out: pEC50 (converted)), 50.1 mM. The minimal effective concentration in test [1] was found to be 910 µg/mL.
The like results for `CCCCCCCCCCCCCCCCCCO` [CETOSTEARYL ALCOHOL] were, in that order, more than 225 µg/mL, more than 1.26 mM and more than 225 µg/mL.
For the molecule `CCCCCCCCCCCCCCCCO` [CETYL ALCOHOL], the EC50 in test [1] (read-out: EC50) was more than 1200 µg/mL; in test [1] (read-out: pEC50 (converted)), more than 5.25 mM. Besides, the inhibition of growth at 1200 µg/mL in test [2] was determined as 5%.
On to `CC(C)=CCCC(C)CCO` (stereo unspecified) [CITRONELLOL], for which the EC50 was 84 µg/mL in test [1] (read-out: EC50) and 0.537 mM in test [1] (read-out: pEC50 (converted)).
`CCCCCCCCCCO` [DECANOL]: the EC50 in test [1] (read-out: EC50) was 112 µg/mL; in test [1] (read-out: pEC50 (converted)) it was 0.708 mM. Further, the minimal effective concentration in test [1] worked out at 52 µg/mL.
With `CC(C)=CCC/C(C)=C/CO` [GERANIOL], the values for the EC50 in test [1] (read-out: EC50) and in test [1] (read-out: pEC50 (converted)) were 100 µg/mL and 0.646 mM, respectively.
Take `CC(C)CO` [ISOBUTANOL]: the EC50 in test [1] (read-out: EC50) amounted to 8200 µg/mL.
On the same count and under the same terms, then `CC(C)O` [ISOPROPYL ALCOHOL], with 18200 µg/mL.
For `C=CC(C)(O)CCC=C(C)C` (stereo unspecified) [LINALOOL], the EC50 was 1090 µg/mL in test [1] (read-out: EC50) and 7.08 mM in test [1] (read-out: pEC50 (converted)).
The like results for `CC1CCC(C(C)C)C(O)C1` (stereo unspecified) [MENTHOL] were, in that order, 452 µg/mL and 2.88 mM.
Regarding `CO` [METHYL ALCOHOL], in test [1] (read-out: EC50), the EC50 stood at 24700 µg/mL. In addition, the minimal effective concentration in test [1] is 8000 µg/mL.
As to `CCCCCCCCO` [OCTANOL], the results for the EC50 in test [1] (read-out: EC50) and in test [1] (read-out: pEC50 (converted)) were 298 µg/mL and 2.29 mM, respectively. In addition, the minimal effective concentration in test [1] stood at 87 µg/mL.
`OCCc1ccccc1` [PHENYLETHYL ALCOHOL]: the EC50 was 1000 µg/mL in test [1] (read-out: EC50) and 8.13 mM in test [1] (read-out: pEC50 (converted)).
Take `CCCO` [PROPANOL]: the EC50 in test [1] (read-out: EC50) was 8980 µg/mL. Further, the minimal effective concentration in test [1] worked out at 4430 µg/mL.
Regarding `CC(C)(C)O` [TERT-BUTANOL], the EC50 in test [1] (read-out: EC50) stood at 17100 µg/mL.
